According to patent US9951039B2, “Pyrimidines for treatment of bacterial infections” (The Hong Kong Polytechnic University, priority 2016, dated 2018):
In brackets after ≈: the same amount, converted by molar mass.

Experiments:
[1] = system: G. mellonella larvae; experiment: Toxicity in G. mellonella larvae; type: in vivo, Galleria mellonella; conditions: 0, 50 and 100 mg/Kg in 50% PEG in saline, no MRSA inoculation, 48-hours period
Description: (§1) Procedure: Compound 14av_amine16 was tested in a Galleria mellonella model, which are an easy and inexpensive in vivo model with no ethical constraints for investigating antibacterial activity of a compound.^22 The G. mellonella model of S. aureus infection was used as previously described.^24 Briefly, 1 mL aliquots of overnight cultures of S. aureus 43300 were pelleted by centrifugation and washed with sterile PBS before being resuspended in 100 μL of PBS. G. mellonella larvae (N=10) that weighed 200-300 mg were then inoculated with 10 μL of S. aureus (2.5×10^6 CFU) into the last left proleg. Larvae were then treated with compounds at 1 h before bacterial inoculation. Treatments were performed in the same manner as infection, except that compounds were injected into the next left proleg moving toward the head of the larvae. […] Data was analyzed for statistical significance using a log rank and χ square test with 1 degree of freedom. Various concentrations of compound 14av_amine16 dissolved in 50% PEG in saline (0 mg/Kg, 50 mg/Kg and 100 mg/Kg) were injected into the hemocoel of last-instar G. mellonella larvae and survival was scored over time.
To examine the feasibility of using G. mellonella for compound 14av_amine16 toxicity study, the ability of compound 14av_amine16 to kill G. mellonella larvae was examined.

[2] = system: MRSA ATCC 43300; experiment: Antimicrobial efficacy in G. mellonella model of infection; type: in vivo, Galleria mellonella
Description: as §1
The efficacy of compound 14av_amine16 against G. mellonella larvae infected with MRSA ATCC 43300 was investigated. Inoculation of lethal dose of 2.5×10^6 CFU/larva of MRSA ATCC 43300 led to a significant death rate. […]

[3] = system: S. aureus ATCC BAA-1720 (methicillin resistant); experiment: MIC against clinically isolated strain 3; type: cell-based; conditions: Staphylococcus aureus, ATCCBAA1720
Description: Procedure of Antimicrobial susceptibility test: The MIC value of compounds was measured in the antimicrobial susceptibility test using the broth microdilution procedure in accordance with the CLSI guidelines.^21 Cation-adjusted Mueller Hinton broth (CA-MHB) was used for all the S. aureus strains in the assay. Cells in exponential phase of growth were diluted to approximately 5×10^5 cfu/mL. Stock solutions of each compound were freshly dissolved in dimethyl sulfoxide (DMSO). Then, serial dilutions of each compound in CA-MHB medium were added into 96-well microplate. The final percentage of DMSO in the assay was 1%. Control experiments were performed with 1% DMSO instead of the compound solution. After being incubated at 37° C. for 18 h, OD600 value of cells was measured on a microplate reader and the percentage of bacterial cell inhibition with respect to controls was calculated. The MIC value was defined as the lowest compound concentration at which the growth of bacteria was inhibited by ≥90%. Three independent assays were performed for each compound.
Results: Three compounds, namely 14av_amine16, 14dv_amine16 and 14dv_amine06, were selected to be tested against nine in-house clinically isolated bacterial strains including S. aureus ATCC29247, which is an ampicillin resistant strain, S. aureus ATCC BAA-41, ATCC BAA-1717, ATCC BAA-1720, ATCC 43300 which are methicillin resistant strains and four USA300 strains, (#417, #757, #1799 and #2690), which are the predominant strain type of community-associated MRSA strains in the United States.

In the case of `CCC(CC)c1cc(CCN2CCCN(Cc3ccc(C(F)(F)F)cc3)CC2)nc(-c2ccncc2)n1` [Compound 14av_amine16, 1-(2-(6-(pentan-3-yl)-2-(pyridin-4-yl)pyrimidin-4-yl)ethyl)-4-(4-(trifluoromethyl)benzyl)-1,4-diazepane], the “ability to kill G. mellonella larvae (toxicity)” value [1] is reported as “did not kill G. mellonella larvae”, the “survival time of infected larvae” value ([2]; 50 mg/Kg, lethal dose 2.5×10^6 CFU/larva MRSA ATCC 43300) is reported as 36 h and the “survival rate of infected larvae over the infection period” value ([2]; 100 mg/Kg, lethal dose MRSA ATCC 43300, 48 h) is reported as 20%. It also gave an MIC [3] of 12 µM (≈ 6.14 µg/mL).
